Like-named read-outs stand apart in the source and are kept apart here.
Columns and labels:
gastric acid secretion = experiment: Gastric antisecretory activity in the gastric fistula rat; type: in vivo, rat (male Long Evans); conditions: sc, read-out: ED50 sc
histamine H2-receptor = target: T1, histamine H2-receptor (Cavia porcellus, UniProt P47747); conditions: Black et al., Nature, 236, 385 (1972); cited from earlier work
T1 construct: The spontaneously beating right atrium was dissected free from other tissues; from tissue; host or cells: isolated spontaneously beating right atrium of male Hartley strain guinea pigs
T1 sequence (P47747 whole entry): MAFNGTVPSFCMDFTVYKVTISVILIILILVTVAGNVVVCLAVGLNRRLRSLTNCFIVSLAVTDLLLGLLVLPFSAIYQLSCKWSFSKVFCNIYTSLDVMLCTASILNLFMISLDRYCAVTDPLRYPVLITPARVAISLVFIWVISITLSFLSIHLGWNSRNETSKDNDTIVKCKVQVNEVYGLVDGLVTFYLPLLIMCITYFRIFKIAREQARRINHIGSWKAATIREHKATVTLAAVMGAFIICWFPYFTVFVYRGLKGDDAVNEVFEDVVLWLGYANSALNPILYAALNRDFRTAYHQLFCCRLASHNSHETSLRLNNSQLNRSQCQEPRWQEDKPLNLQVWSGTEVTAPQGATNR

peptic ulcer disease = conditions: clinical evaluation, Gray et al., Lancet, 1, 8001 (1977); cited from earlier work

Row | Compound | ED50 (gastric acid secretion; gastric fistula rat) [µmol/kg] | further results
1 | Nc1nsnc1NCCCOc1cccc(CN2CCCCC2)c1 [Example 3, 3-Amino-4-[3-(3-piperidinomethylphenoxy)propylamino]-1,2,5-thiadiazole] | 0.094 | 
2 | Nc1nsnc1NCCCOc1cccc(CN2CCCC2)c1 [Example 4, 3-Amino-4-[3-(3-pyrrolidinomethylphenoxy)propylamino]-1,2,5-thiadiazole] | 0.18 | 
3 | CN(C)Cc1ccc(CSCCNc2nsnc2N)o1 [Example 10, 3-amino-4-{2-[(5-dimethylaminomethyl-2-furyl)-methylthio]ethylamino}-1,2,5-thiadiazole] | 0.77 | 
4 | Cc1cc(CSCCNc2nsnc2N)sc1CN(C)C [Example 11, 3-Amino-4-{2-[(5-dimethylaminomethyl-4-methyl-2-thienyl)methylthio]ethylamino}-1,2,5-thiadiazole] | ~0.5 | 
5 | CNC(=S)NCCCCc1cnc[nH]1 [burimamide] |  | type of antagonism at histamine H2-receptors (histamine H2-receptor): competitive antagonist
6 | CN/C(=N/CCSCc1nc[nH]c1C)NC#N [cimetidine, reference compound] |  | therapeutic effect in treatment of peptic ulcer disease (peptic ulcer disease): effective therapeutic agent in the treatment of peptic ulcer disease; ED50 (gastric acid secretion; Rattus norvegicus): 3.48 µmol/kg
